What all share (assay type): biochemical
The test system of assay [1] is HDAC. Briefly: HDAC fluorimetric assay kit (AK-500, Biomol), HeLa nuclear extract. The protocol:
HDAC inhibitors were screened using an HDAC fluorimetric assay kit (AK-500, Biomol, Plymouth Meeting, Pa.). […] Each assay was setup as follows: Defrosted all kit components and kept on ice until use. Diluted HeLa nuclear extract 1:29 in Assay Buffer (50 mM Tris/Cl, pH 8.0, 137 mM NaCl, 2.7 mM KCl, 1 mM MgCl2). Prepared dilutions of Trichostatin A (TSA, positive control) and tested compounds in assay buffer (5× of final concentration). Diluted Fluor de LysTM Substrate in assay buffer to 100 uM (50 fold=2× final). Diluted Fluor de LysTM developer concentrate 20-fold (e.g. 50 μl plus 950 μl Assay Buffer) in cold assay buffer. Second, diluted the 0.2 mM Trichostatin A 100-fold in the 1× Developer (e.g. 10 μl in 1 ml; final Trichostatin A concentration in the 1× Developer=2 μM; final concentration after addition to HDAC/Substrate reaction=1 μM). Added Assay buffer, diluted trichostatin A or test inhibitor to appropriate wells of the microtiter plate. Added diluted HeLa extract or other HDAC sample to all wells except for negative controls. Allowed diluted Fluor de LysTM Substrate and the samples in the microtiter plate to equilibrate to assay temperature (e.g. 25 or 37° C. Initiated HDAC reactions by adding diluted substrate (25 μl) to each well and mixing thoroughly. Allowed HDAC reactions to proceed for 1 hour and then stopped them by addition of Fluor de LysTM Developer (50 μl). Incubated plate at room temperature (25° C.) for 10-15 min. Read samples in a microtiter-plate reading fluorimeter capable of excitation at a wavelength in the range 350-380 nm and detection of emitted light in the range 440-460 nm.

For assay [2], the target named is T1, CDK1/cyclinB (Homo sapiens, UniProt P06493).
T1 construct: C-terminal 6His-tagged human full length cdk1 (MW=35 kDa); 6His (C); made in house; host or cells: Sf21 insect cells (baculovirus)
T1 sequence (P06493 whole entry): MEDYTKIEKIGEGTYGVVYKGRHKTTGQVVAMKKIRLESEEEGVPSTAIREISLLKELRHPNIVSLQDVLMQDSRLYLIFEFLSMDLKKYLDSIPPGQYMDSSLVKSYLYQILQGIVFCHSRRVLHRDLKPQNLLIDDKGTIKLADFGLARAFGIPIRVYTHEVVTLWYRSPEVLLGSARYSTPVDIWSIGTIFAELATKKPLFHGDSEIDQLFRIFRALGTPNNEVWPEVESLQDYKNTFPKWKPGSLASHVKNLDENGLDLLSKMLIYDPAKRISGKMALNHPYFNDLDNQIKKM
T1 sequence (P14635 whole entry partner): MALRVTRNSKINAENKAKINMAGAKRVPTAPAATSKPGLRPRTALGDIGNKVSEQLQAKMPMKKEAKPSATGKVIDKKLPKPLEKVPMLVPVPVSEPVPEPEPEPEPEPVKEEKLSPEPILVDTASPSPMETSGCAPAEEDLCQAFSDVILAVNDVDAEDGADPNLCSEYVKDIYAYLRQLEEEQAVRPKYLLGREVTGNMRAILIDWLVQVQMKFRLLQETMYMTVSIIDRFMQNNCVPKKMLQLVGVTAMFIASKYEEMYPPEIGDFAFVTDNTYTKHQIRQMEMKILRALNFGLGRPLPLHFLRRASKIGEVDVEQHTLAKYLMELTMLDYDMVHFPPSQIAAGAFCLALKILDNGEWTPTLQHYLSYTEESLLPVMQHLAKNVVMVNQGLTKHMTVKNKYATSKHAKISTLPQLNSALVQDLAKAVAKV
Briefly: CDK activity assay with p33 ATP, CDK1/cyclinB. Particulars: 1 μM ATP. From the text: CDK1/cyclinB (Accession Number for CDK1; GenBankNM_001786, for cyclinB; EMBL M25753):
C-terminal 6His-tagged human full length cdk1 (MW=35 kDa), and N-terminal GST-tagged human full length cyclin B (MW=75 kDa) were expressed individually with baculovirus system in Sf21 insect cells. Recombinant proteins were purified using Ni2+/NTA-agarose and GST-agarose, respectively. The cdk1 was then activated using CAK and repurified by Q Sepharose and Ni2+/NTA-agarose. They were then mixed in vitro to form protein complex. The purity of these protein complex was estimated to be 80.5% by SDSPAGE and Coomassie blue staining. Specific Activity of recombinant enzyme was measyre to be 1329 U/mg, where one unit of cdk1/cyclinB activity is defined as 1 nmol phosphate incorporated into 0.1 mg/ml histone H1 per minute at 30° C. with a final ATP concentration of […]. Enzyme was stored at concentration of 0.1 mg/ml in 50 mM Tris/HCl pH7.5, 150 mM NaCl, 0.1 mM EGTA, 0.03% Brij-35, 270 mM sucrose, 1 mM benzamidine, 0.2 mM PMSF, 0.1% 2-mercaptoethanol.

The target of assay [3] is T2, CDK2/cyclinE (Homo sapiens, UniProt P24941).
T2 construct: C-terminal 6His-tagged, recombinant full-length CDK2 (MW=34 kDa); 6His (C); made in house; host or cells: Sf21 cells (baculovirus)
The assay can be described thus: CDK activity assay with p33 ATP, CDK2/cyclinE. Particulars: 1 μM ATP. The method, then: CDK2/cyclinE (Accession Number for CDK2; EMBL M68520, for cyclinE1; GenBank NM_001238):
C-terminal 6His-tagged, recombinant full-length CDK2 (MW=34 kDa) in complex with N-terminal GST-tagged, recombinant full-length cyclinE1 (MW=74 kDa) were expressed with baculovirus system in Sf21 cells. Recombinant proteins were purified using Ni2+/NTA agarose and the purity of recombinant protein complex was measured to be around 76% by SDS-PAGE and Coomassie blue staining. Specific Activity of recombinant CDK2/cyclinE was 1336 U/mg, where one unit of CDK2/cylinE1 activity is defined as 1 nmol phosphate incorporated into 0.1 mg/ml histone H1 per minute at 30° C. with a final ATP concentration of 100 μM. Enzyme was stored with concentration of 0.1 mg/ml in 50 mM Tris/HCl pH 7.5, 150 mM NaCl, 0.03% Brij-35, 0.1 mM EGTA, 0.2 mM PMSF, 1 mM benzamidine, 0.1% 2-mercaptoethanol, 270 mM sucrose.

For assay [4], the target named is T3, CDK9/cyclinT1 (Homo sapiens, UniProt P50750).
T3 construct: C-terminal 6His-tagged, full-length recombinant, human cdk9 (MW=44 kDa); 6His (C); made in house; host or cells: Sf21 insect cells (baculovirus)
T3 sequence (P50750 whole entry): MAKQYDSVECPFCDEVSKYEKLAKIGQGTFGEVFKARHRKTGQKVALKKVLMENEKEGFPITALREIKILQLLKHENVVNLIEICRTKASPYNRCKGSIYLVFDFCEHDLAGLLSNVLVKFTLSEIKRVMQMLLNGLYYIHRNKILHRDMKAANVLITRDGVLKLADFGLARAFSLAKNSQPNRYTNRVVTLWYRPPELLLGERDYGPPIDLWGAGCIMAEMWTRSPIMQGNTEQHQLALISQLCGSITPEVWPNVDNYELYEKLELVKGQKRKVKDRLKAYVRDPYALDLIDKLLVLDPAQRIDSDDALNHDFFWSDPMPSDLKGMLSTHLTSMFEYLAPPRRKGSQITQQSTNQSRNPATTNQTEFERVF
T3 sequence (O60563 whole entry partner): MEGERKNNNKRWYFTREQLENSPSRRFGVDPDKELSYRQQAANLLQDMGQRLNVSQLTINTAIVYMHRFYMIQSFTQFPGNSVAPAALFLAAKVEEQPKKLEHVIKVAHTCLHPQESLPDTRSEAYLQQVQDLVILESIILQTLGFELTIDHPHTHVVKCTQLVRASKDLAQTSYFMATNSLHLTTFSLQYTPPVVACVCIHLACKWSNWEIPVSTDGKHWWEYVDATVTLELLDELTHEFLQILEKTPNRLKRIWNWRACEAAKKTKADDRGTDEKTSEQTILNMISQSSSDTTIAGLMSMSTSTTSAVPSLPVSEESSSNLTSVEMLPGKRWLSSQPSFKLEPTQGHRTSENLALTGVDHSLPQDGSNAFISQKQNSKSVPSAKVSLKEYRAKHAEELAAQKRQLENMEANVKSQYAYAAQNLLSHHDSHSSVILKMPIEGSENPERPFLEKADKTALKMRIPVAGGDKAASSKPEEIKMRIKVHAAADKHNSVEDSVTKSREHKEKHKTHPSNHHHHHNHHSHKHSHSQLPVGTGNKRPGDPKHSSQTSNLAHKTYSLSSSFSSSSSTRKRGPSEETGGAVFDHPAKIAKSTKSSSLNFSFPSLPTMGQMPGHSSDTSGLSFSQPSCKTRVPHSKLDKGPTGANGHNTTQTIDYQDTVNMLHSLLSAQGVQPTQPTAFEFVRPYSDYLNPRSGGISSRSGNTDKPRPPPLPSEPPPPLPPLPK
Briefly: CDK activity assay with p33 ATP, CDK9/cyclinT1. Particulars: 1 μM ATP. The method, then: CDK9/cyclinT1 (Accession Number for CDK9; GenBank AF517840, for Cyclin T1; GenBank NM_001240)
C-terminal 6His-tagged, full-length recombinant, human cdk9 (MW=44 kDa) were co-expressed with untagged, full-length human cyclin T1 (MW=80.79 kDa) with baculovirus system in Sf21 insect cells. Recombinant protein complex was purified with Ni^2+/NTA agarose. Purity of recombinant protein was measured to be 50% by SDS-PAGE and Coomassie blue staining Specific Activity of purified enzyme was measured to be186 U/mg, where one unit of cdk9/cyclin T1 activity is defined as 1 nmol phosphate incorporated into 100 μM PDKtide ([…]) (SEQ ID NO. 3), per minute at 30° C. with a final ATP concentration of 100 μM. Enzyme was stored at a concentration of 0.1 mg/ml in 50 mM Tris-HCl, pH 7.5, 300 mM NaCl, 0.1 mM EGTA, 0.03% Brij-35, 270 mM sucrose, 1 mM benzamidine, 0.1% 2-mercaptoethanol, 0.2 mM PMSF.
PDKtide (Substrate for CDK9):
Synthetic peptide substrate with sequence of [[…]] (SEQ ID NO. 3), MW=4771.4.

Each structure is given as a SMILES string. Where only a bound is given, the exact number is not on record here.

For the compound `CC(C)(C)c1cnc(CSc2cnc(NC(=O)CCCCCCC(=O)NO)s2)o1` [Compound 8, N^1-(5-((5-tert-butyloxazol-2-yl)methylthio)thiazol-2-yl)-N^8-hydroxyoctanediamide], the IC50 in assay [1], in assay [2], in assay [3] and in assay [4] was less than 100 nM each time.
On to `CC(C)(C)c1cnc(CSc2cnc(NC(=O)Cc3ccc(OCCCC(=O)NO)cc3)s2)o1` [Compound 9, 4-(4-(2-(5-((5-tert-butyloxazol-2-yl)methylthio)thiazol-2-ylamino)-2-oxoethyl)phenoxy)-N-hydroxybutanamide], for which the IC50 in assay [1] was 100 to 1000 nM; in assay [2], less than 100 nM; in assay [3], less than 100 nM; in assay [4] it was less than 100 nM.
On to `CC(C)(C)c1cnc(CSc2cnc(NC(=O)C3CCN(c4ncc(C(=O)NO)cn4)CC3)s2)o1` [Compound 20, 2-(4-(5-((5-tert-butyloxazol-2-yl)methylthio)thiazol-2-ylcarbamoyl)piperidin-1-yl)-N-hydroxypyrimidine-5-carboxamide], for which the IC50 in assay [1], in assay [2], in assay [3] and in assay [4] was less than 100 nM each time.

Source of the values: patent US8563741B2, “CDK inhibitors containing a zinc binding moiety” (Curis, Inc., priority 2007, dated 2013).
